The results in this text go back to patent US20250144267A1, “USE OF POLYSACCHARIDE DERIVATIVE” (priority 2022, published 2025).

Data set [1] has as its system MeT-5A (human mesothelial cell line). Kind of data set: Cell toxicity evaluation (WST assay) of HA-ABA-PMX in MeT-5A. Format: cell-based. The conditions noted are these: PMX 10^−4 to 10 μg/mL, 48 hours. On the procedure: (§1) As with the HA-ABA, the cell toxicity of HA-ABA-PMX in MeT-5A (human mesothelial cell line) and AB22 cells (mouse mesothelioma cells) was evaluated by WST assay.
(§2) Specifically, MeT-5A (human mesothelial cell line) and AB22 cells (mouse mesothelioma cells) were seeded on 24-well plates and incubated for 24 hours. The medium was then replaced with medium having HA-ABA-PMX dissolved at different PMX concentrations (10^−4 μg/mL, 10^−3 μg/mL, 10^−2 μg/mL, 10^−1 μg/mL, 1 μg/mL, 10 μg/mL). Cell viability (%) 48 hours after sample addition was then measured by WST-8 assay (Cell Counting Kit-8, Dojindo).
(§3) For purposes of comparison as a control test, cell toxicity was also evaluated using free PMX and HA-ADH-PMX in place of HA-ABA-PMX.

The subject of data set [2] is AB22 cells (mouse mesothelioma cells). Kind of data set: Cell toxicity evaluation (WST assay) of HA-ABA-PMX in AB22. The data set is classed as cell-based. The conditions noted are these: PMX 10^−4 to 10 μg/mL, 48 hours. The procedure:
as §1, §2, §3

Data set [3] in a line: Release test of PMX from HA-ABA-PMX (dialysis tube, PBS). Format: physicochemical. On the procedure: The release behavior or PMX from HA-ABA-PMX at different pH values was investigated using a dialysis tube (MWCO: 1 kDa). 1 mL of an aqueous solution of the HA-ABA-PMX (1 mg/mL) obtained in Example II-2 above was placed in a dialysis tube, and shaken at 50 rpm while being incubated with 79 mL of PBS (37° C., pH=5.0, 6.0 7.4). The external solution (sustained release solution) was collected at specific time points, and new PBS was substituted for the entire amount. The drug concentration in the collected external solution (sustained release solution) was measured by UV-vis, and the release rate of the drug PMX was calculated.
For purposes of comparison as control tests, the same release test was also performed with the HA-ABA-PMX solution replaced by an aqueous solution of PMX (0.12 mg/mL) (Free PMX), a mixed solution of HA and PMX obtained by dissolving hyaluronic acid (HA) (1 mg/mL) and PMX (0.12 mg/mL) in water (Free PMX mixed with HA), and an aqueous solution of HA-ADH-PMX having the HA bound irreversibly to the PMX by amide bonds.

In data set [4] the test system is AB22 cells (mouse mesothelioma cells). Put plainly: Cell toxicity evaluation (WST assay) of HA-ABA-DOX in AB22. The data set is classed as cell-based. As to conditions: DOX 10^−3 to 100 μg/mL, 48 hours. On the procedure: As with the HA-ABA, the cell toxicity of HA-ABA-DOX in AB22 cells (mouse mesothelioma cells) was evaluated by WST assay.
Specifically, AB22 cells (mouse mesothelioma cells) were seeded on 24-well plates and incubated for 24 hours. The medium was then replaced with media having HA-ABA-PMX dissolved at different DOX concentrations (10^−3 μg/mL, 10^−2 μg/mL, 10^−1 μg/mL, 1 μg/mL, 10 μg/mL, 100 μg/mL). Cell viability (%) 48 hours after sample addition was then measured by WST-8 assay (Cell Counting Kit-8, Dojindo).
For purposes of comparison as a control test, cell toxicity was also evaluated using free DOX in place of HA-ABA-DOX.

Data set [5] is described as follows: Release test of Van from AL-ABA-Van solution (dialysis membrane, PBS). Format: physicochemical. As to conditions: PBS pH 5.0, 6.0, 7.4, 37°C. The procedure: The release behavior or Van from an AL-ABA-Van solution at different pH values was investigated using a dialysis membrane (pore size: 50 kDa). Specifically, 1 mL of an AL-ABA-Van solution of the AL-ABA-Van obtained in Example I-7 above dissolved in 3 mg/mL of pure water was injected into a dialysis membrane cut to 9 cm, and both ends of the dialysis membrane were tied with kite thread. This was placed in an 80 mL security container, 79 mL of PBS solution was added, and the mixture was stirred at the maximum rotational speed with a 1 cm stirrer tip in a 37° C. thermostatic tank. 1.0 mL samples were taken from the solution in the security container at specific time points (1, 2, 3, 4, 6, 8, 12, 24, and 48 hours). The sample solutions were subjected to UV-vis spectrum measurement, the drug concentration in the solutions was assayed based on absorbance, and the release rate of the drug Van (vancomycin release %) was calculated. The above measurements were conducted with pH 5.0, pH 6.0 and pH 7.4 PBS solutions (n=4 at each pH). […]

“Also recorded” adds a separate entry of the source.

With “benzaldehyde-modified hyaluronic acid-pemetrexed conjugate [HA-ABA-PMX]”, the “Cell growth inhibition effect (cell viability)” value (shortened to “Cell growth inhibition effect”) was “dose-dependent cell growth inhibition effects; also recorded: reduced cell viability at lower concentrations than the free PMX and the HA-ADH-PMX” in data set [1]; “dose-dependent cell growth inhibition effects; also recorded: reduced cell viability at lower concentrations than the free PMX and the HA-ADH-PMX” in data set [2]. Also, the “PMX released (cumulative drug release)” value in data set [3] (PBS pH 5.0, 37°C, after 24 hours) is “more than 80%”. Also, the PMX not released in data set [3] (PBS pH 7.4, 37°C, after 24 hours) is 40%.

As for `Nc1nc2[nH]cc(CCc3ccc(C(=O)N[C@@H](CCC(=O)O)C(=O)O)cc3)c2c(=O)[nH]1` [Free PMX, Pemetrexed, reference compound], the “Cell growth inhibition effect” value in data set [1] and in data set [2] was “dose-dependent cell growth inhibition effects” each time. The PMX release behavior entry in data set [3] (PBS, 37°C) is “almost all of the PMX was rapidly released within 2 hours”.

For the compound `COc1cccc2c1C(=O)c1c(O)c3c(c(O)c1C2=O)C[C@@](O)(C(=O)CO)C[C@@H]3O[C@H]1C[C@H](N)[C@H](O)[C@H](C)O1` [free DOX, Doxorubicin], the “Cell growth inhibition effect” value in data set [4] is on record as “dose-dependent cell growth inhibition effects on AB22”.

Consider `CN[C@H](CC(C)C)C(=O)N[C@H]1C(=O)N[C@@H](CC(N)=O)C(=O)N[C@H]2C(=O)N[C@H]3C(=O)N[C@H](C(=O)N[C@H](C(=O)O)c4cc(O)cc(O)c4-c4cc3ccc4O)[C@H](O)c3ccc(c(Cl)c3)Oc3cc2cc(c3O[C@@H]2O[C@H](CO)[C@@H](O)[C@H](O)[C@H]2O[C@H]2C[C@](C)(N)[C@H](O)[C@H](C)O2)Oc2ccc(cc2Cl)[C@H]1O` [Van, Vancomycin], for which the Van release behavior result in data set [5] is given as “almost all of the Van was released in the first 10 hours”.
